Test results published in publication PMC3582901 (Angewandte Chemie (International ed. in English), 2011).

Target: DYNLL1 (dynein light chain type 1) (Homo sapiens, UniProt P63167)
Assay: isothermal titration calorimetry
Assay type: binding

Sequence of DYNLL1 (dynein light chain type 1) (P63167 whole entry): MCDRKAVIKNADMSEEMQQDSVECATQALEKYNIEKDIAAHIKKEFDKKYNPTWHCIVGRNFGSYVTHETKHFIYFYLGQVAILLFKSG

Kd: 840 ± 310 nM
Compound: C=C(C)[C@@H](CC[C@]1(C)O[C@@H]([C@](C)(O)[C@@H]2CC[C@H]3O[C@@H]([C@]4(C)CC[C@@H](Br)C(C)(C)O4)CC[C@]3(C)O2)C[C@H]1O)OC [1a, aplysqualenol A]
